Measurements: patent US4639541A, “Substituted phenylacetic acid iodopropargyl esters, biocidal agents containing same and process for manufacturing same” (priority 1984, dated 1987)

How the values were obtained:
[1] = system: Colletotrichum coffeanum; assay: Spore germination test, Colletotrichum coffeanum; type: cell-based; settings: Colletotrichum coffeanum, 48 hours, 20° C., vs untreated control, read-out: degree of activity (fungal toxicity with respect to fungal spores)
Procedure: (§1) 50 μl of a solution or suspension of an active ingredient according to the invention together with 50 μl of a spore suspension produced by washing spores of an agar culture with a nutrient solution that contained per liter 10 g of sugar, 1 g of glycol, 1 g of KH2 PO4 and 0.5 g of MgSO4 were introduced into the concave-ground portion of concave-ground microscope slides.
(§2) The microscope slides were stored at 20° C. for 48 hours in a Petri dish, the base of which was covered with a moistened filter paper.
(§3) Subsequently, the ratio of germinated and non-germinated spores was compared with an untreated control specimen.
(§4) The degree of activity was calculated as a percentage in accordance with the following formula: [formula]

[2] = system: Verticillium dahliae; assay: Spore germination test, Verticillium dahliae; type: cell-based; settings: Verticillium dahliae, 48 hours, 20° C., vs untreated control, read-out: degree of activity (fungal toxicity with respect to fungal spores)
Procedure: as §1, §2, §3, §4

[3] = system: Fusarium culmorum; assay: Spore germination test, Fusarium culmorum; type: cell-based; settings: Fusarium culmorum, 48 hours, 20° C., vs untreated control, read-out: degree of activity (fungal toxicity with respect to fungal spores)
Procedure: as §1, §2, §3, §4

[4] = system: Botrytis cinerea; assay: Spore germination test, Botrytis cinerea; type: cell-based; settings: Botrytis cinerea, 48 hours, 20° C., vs untreated control, read-out: degree of activity (fungal toxicity with respect to fungal spores)
Procedure: as §1, §2, §3, §4

[5] = system: Fusarium nivale; assay: Spore germination test, Fusarium nivale; type: cell-based; settings: Microdochium nivale, 48 hours, 20° C., vs untreated control, read-out: degree of activity (fungal toxicity with respect to fungal spores)
Procedure: as §1, §2, §3, §4

[6] = system: Penicillium glaucum; assay: Spore germination test, Penicillium glaucum; type: cell-based; settings: Penicillium, 48 hours, 20° C., vs untreated control, read-out: degree of activity (fungal toxicity with respect to fungal spores)
Procedure: as §1, §2, §3, §4

[7] = system: Alternaria tenuis; assay: Spore germination test, Alternaria tenuis; type: cell-based; settings: Alternaria alternata, 48 hours, 20° C., vs untreated control, read-out: degree of activity (fungal toxicity with respect to fungal spores)
Procedure: as §1, §2, §3, §4

[8] = system: Botrytis cinerea; assay: Fungicidal activity against Botrytis cinerea in broad beans; type: in vivo; settings: 500 ppm spray, broad beans "Midget", after 6 days, 20° C., 95% humidity, vs untreated
Procedure: Broad beans of the "Midget" variety were grown to a height of approximately 10 cm. The plants were sprayed until dripping wet with spray liquors containing 500 ppm of active ingredient.
When the spray coating had dried, the plants were inoculated with a spore suspension of Botrytis cinerea. The plants were placed in a climatic cabinet at a constant 20° C. and an atmospheric humidity of 95%.
After 6 days, fungicidal activity was evaluated. The activity was ascertained in comparison with untreated specimens.
The degree of activity as a percentage was ascertained in accordance with the following formula [formula] The following were used as active ingredients: I 2-chloro-3,5-dinitrophenylacetic acid iodopropargyl ester

With `O=C(Cc1ccccc1)OCC#CI` [V] the inhibition of growth at 1 ppm ([1]; 1 ppm) was 20%, the inhibition of growth at 2 ppm ([1]; 2 ppm) was 30% and the inhibition of growth at 4 ppm ([1]; 4 ppm) was 80%. The inhibition of growth at 1 ppm ([2]; 1 ppm) was 0%, the inhibition of growth at 2 ppm ([2]; 2 ppm) was 0% and the inhibition of growth at 4 ppm ([2]; 4 ppm) was 30%. The inhibition of growth at 1 ppm ([3]; 1 ppm) was 0%, the inhibition of growth at 2 ppm ([3]; 2 ppm) was 0% and the inhibition of growth at 4 ppm ([3]; 4 ppm) was 40%. The inhibition of growth at 1 ppm ([4]; 1 ppm) was 0%, the inhibition of growth at 2 ppm ([4]; 2 ppm) was 0% and the inhibition of growth at 4 ppm ([4]; 4 ppm) was 50%. It also gave an inhibition of growth at 1 ppm ([5]; 1 ppm) of 60%, an inhibition of growth at 2 ppm ([5]; 2 ppm) of 70% and an inhibition of growth at 4 ppm ([5]; 4 ppm) of 90%. The inhibition of growth at 1 ppm ([6]; 1 ppm) was 0%, the inhibition of growth at 2 ppm ([6]; 2 ppm) was 0% and the inhibition of growth at 4 ppm ([6]; 4 ppm) was 40%. The inhibition of growth at 1 ppm ([7]; 1 ppm) was 80%, the inhibition of growth at 2 ppm ([7]; 2 ppm) was 90% and the inhibition of growth at 4 ppm ([7]; 4 ppm) was 100%. The “% Activity against Botrytis cinerea in broad beans” value [8] was 0%.
